# According to PMC6825211 (Nature Communications, 2019):
# Several values for one entry are separate records, joined by “and”; a condition that tells them apart may be missing. Equal entries are not always repeated. Entries after “also recorded” stand apart in the source; their conditions may differ.
# Experiments:
# [1] = system: INS-1E cells; test: Cytotoxicity CellTiter-Glo assay; conditions: all tested concentrations, 24 h
# Description: Assay plates were shaken vigorously for 1 min at RT to achieve completed cell lysis. Luminescence intensity was detected on Envision plate reader (Perkin Elmer, MA).
# [2] = molecular target: PI3-KINASE-ALPHA (Homo sapiens, UniProt P42336); test: Nanosyn kinase profiling, mobility shift assay; conditions: read-out: % inhibition by neratinib
# [3] = system: MLD–STZ C57BL/6J mice; test: MLD–STZ model: PDX1, NKX6.1, Glut2 immunostaining; assay type: in vivo, mouse
# Description: Representative triple stainings for PDX1 (red, a), Glut2 (red, b), or NKX6.1 (red, c), insulin (green), and DAPI (blue) are shown from vehicle-, STZ-, and STZ/Nera-treated mice (n = 8, 4, 9 & 9 mice/group). Scale bar, 100 μm
# Mouse pancreases were dissected and fixed in 4% formaldehyde at 4 °C for 12 h before embedding in paraffin[62]. […] Slides were mounted with Vectashield with 4′6-diamidino-2-phenylindole (DAPI) (Vector Labs). β-cell apoptosis was analyzed by the terminal deoxynucleotidyl transferase-mediated dUTP nick-end labeling (TUNEL) technique according to the manufacturer’s instructions (In Situ Cell Death Detection Kit, TMR red; Roche) and double stained for insulin. Fluorescence was analyzed by using a Nikon MEA53200 (Nikon GmbH, Dusseldorf, Germany) microscope, and images were acquired by using NIS-Elements software (Nikon).
# [4] = molecular target: CSK (Homo sapiens, UniProt P41240); test: Nanosyn kinase profiling, mobility shift assay; conditions: read-out: % inhibition by neratinib
# [5] = molecular target: AMP-A1B1G1 (Homo sapiens, UniProt Q13131); test: Nanosyn kinase profiling, mobility shift assay; conditions: read-out: % inhibition by neratinib
# [6] = system: INS-1E cells; test: Caspase-3 activation Nucview assay, TNFα/IFNγ with 33 mM glucose; assay type: cell-based, rat; conditions: up to 6.7 µM neratinib
# [7] = molecular target: IGF1R (Homo sapiens, UniProt P08069); test: Nanosyn kinase profiling, mobility shift assay; conditions: read-out: % inhibition by neratinib
# [8] = molecular target: SYK (Homo sapiens, UniProt P43405); test: Nanosyn kinase profiling, mobility shift assay; conditions: read-out: % inhibition by neratinib
# [9] = molecular target: FAK (Homo sapiens, UniProt Q05397); test: Nanosyn kinase profiling, mobility shift assay; conditions: read-out: % inhibition by neratinib
# [10] = molecular target: ROCK1 (Homo sapiens, UniProt Q13464); test: Nanosyn kinase profiling, mobility shift assay; conditions: read-out: % inhibition by neratinib
# [11] = system: MLD–STZ C57BL/6J mice; test: MLD–STZ model: β-cell mass; assay type: in vivo, mouse; parameters: BCM: unit not given here
# Description: (§1) C57Bl/6J mice were injected with 40 mg/kg streptozotocin or citrate buffer for 5 consecutive days. […] In d, basal glucose values were normalized to 100%. e Insulin secretion measured from retro-orbital blood draw during an ipGTT measured before (0 min) and 15 min after glucose injection; data are expressed as the ratio of secreted insulin at 15 min/0 min (stimulatory index). f The ratio of secreted insulin and glucose is calculated at fed state. g–i Mice were killed at day 35. g β-cell mass (given as percentage of the whole pancreatic section from ten sections spanning the width of the pancreas) and quantitative analyses from triple staining for h TUNEL or i Ki67, insulin, and DAPI expressed as percentage of TUNEL- or Ki67-positive β-cells ±SEM. An average number of 2331 (h), or 26369 (i) β-cells were counted. n = 9 mice/group for (a); n = 4–12 for (b); n = 5–15 for (c) and (d); n = 12–19 for (e); n = 8–14 for (f); n = 4–9 for (g); n = 4–11 for (h); and n = 6–11 mice/groupfor (i); all from three independent experiments).
# For morphometric data, ten sections (spanning the width of the pancreas) per mouse were analyzed. Pancreatic tissue area and insulin-positive area were determined by computer-assisted measurements by using a Nikon MEA53200 (Nikon GmbH, Dusseldorf, Germany) microscope, and images were acquired by using NIS-Elements software (Nikon). β-cell mass was obtained by multiplying the β-cell fraction by the weight of the pancreas.
# [12] = molecular target: IKK-BETA (Homo sapiens, UniProt O14920); test: Nanosyn kinase profiling, mobility shift assay; conditions: read-out: % inhibition by neratinib
# [13] = system: MST family members; parameters: method as in PMID 22037378; conditions: cited from earlier work
# [14] = system: MLD–STZ C57BL/6J mice; test: MLD–STZ model: random fed blood glucose; assay type: in vivo, mouse; parameters: AUC glycemia: unit not given here
# Description: as §1
# [15] = system: isolated islets from MST1-KO mice; test: β-cell apoptosis (TUNEL/insulin) under diabetogenic conditions, MST1-KO islets
# [16] = system: human islets; test: β-cell apoptosis (TUNEL/insulin) after Ad-MST1 overexpression; conditions: for mean TUNEL/isolation/%: MST1 OE + NERA 10 μM 48 h
# Description: Isolated human islets or INS-1E cells were infected with adenovirus carrying LacZ as control or MST1 or LATS2 (all Vector Biolabs), at a multiplicity of infection of 100 (human islets) or 20 (INS-1E) for 4 h[11].
# Chain of IKK-BETA (O14920 whole entry): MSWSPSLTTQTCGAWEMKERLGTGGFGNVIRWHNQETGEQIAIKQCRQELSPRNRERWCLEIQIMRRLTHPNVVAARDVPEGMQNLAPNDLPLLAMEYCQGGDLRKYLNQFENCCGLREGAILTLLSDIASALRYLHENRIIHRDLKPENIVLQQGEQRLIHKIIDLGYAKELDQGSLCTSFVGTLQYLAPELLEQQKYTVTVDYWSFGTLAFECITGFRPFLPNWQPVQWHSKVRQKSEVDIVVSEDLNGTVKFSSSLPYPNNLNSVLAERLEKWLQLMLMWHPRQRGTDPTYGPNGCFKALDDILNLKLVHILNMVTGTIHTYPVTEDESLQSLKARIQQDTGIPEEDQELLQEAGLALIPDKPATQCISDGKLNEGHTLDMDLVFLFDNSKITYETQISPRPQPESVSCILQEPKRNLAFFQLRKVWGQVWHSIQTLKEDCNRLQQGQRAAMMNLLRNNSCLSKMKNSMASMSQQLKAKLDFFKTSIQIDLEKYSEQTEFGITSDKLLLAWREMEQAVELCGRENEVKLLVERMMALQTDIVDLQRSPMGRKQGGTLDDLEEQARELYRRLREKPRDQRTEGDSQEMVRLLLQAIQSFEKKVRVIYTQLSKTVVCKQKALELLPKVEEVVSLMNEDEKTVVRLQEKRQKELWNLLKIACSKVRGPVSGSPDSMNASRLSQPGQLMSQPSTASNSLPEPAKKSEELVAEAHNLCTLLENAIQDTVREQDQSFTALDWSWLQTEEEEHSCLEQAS
# Chain of PI3-KINASE-ALPHA (P42336 whole entry): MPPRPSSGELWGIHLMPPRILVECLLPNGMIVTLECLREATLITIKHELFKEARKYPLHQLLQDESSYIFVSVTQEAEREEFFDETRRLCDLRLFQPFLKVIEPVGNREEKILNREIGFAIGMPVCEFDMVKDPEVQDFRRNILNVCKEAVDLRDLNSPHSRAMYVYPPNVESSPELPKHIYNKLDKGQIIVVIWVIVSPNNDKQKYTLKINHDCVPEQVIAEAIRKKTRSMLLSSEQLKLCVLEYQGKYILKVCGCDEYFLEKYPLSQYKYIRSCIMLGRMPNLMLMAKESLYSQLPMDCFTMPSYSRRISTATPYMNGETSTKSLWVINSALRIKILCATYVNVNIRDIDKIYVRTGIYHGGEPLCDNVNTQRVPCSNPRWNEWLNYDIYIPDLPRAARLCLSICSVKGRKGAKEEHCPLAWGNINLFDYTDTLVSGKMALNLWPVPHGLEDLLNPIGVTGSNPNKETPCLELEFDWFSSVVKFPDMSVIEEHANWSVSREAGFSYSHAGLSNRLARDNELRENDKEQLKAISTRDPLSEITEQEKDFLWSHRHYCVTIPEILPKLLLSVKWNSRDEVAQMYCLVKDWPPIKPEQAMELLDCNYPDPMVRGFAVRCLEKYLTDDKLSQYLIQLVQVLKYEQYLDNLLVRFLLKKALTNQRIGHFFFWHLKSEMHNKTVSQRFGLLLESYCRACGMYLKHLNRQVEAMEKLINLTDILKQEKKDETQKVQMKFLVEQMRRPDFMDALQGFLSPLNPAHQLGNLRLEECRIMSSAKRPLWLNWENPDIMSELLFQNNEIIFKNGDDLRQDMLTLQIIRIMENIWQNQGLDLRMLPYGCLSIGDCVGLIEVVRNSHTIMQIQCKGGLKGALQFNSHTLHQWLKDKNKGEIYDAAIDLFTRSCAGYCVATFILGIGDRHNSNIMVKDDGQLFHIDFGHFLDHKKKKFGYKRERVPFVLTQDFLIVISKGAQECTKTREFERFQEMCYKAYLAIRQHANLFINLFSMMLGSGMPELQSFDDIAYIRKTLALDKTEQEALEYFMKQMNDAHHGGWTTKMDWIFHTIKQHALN
# Chain of PI3-KINASE-ALPHA (P27986 whole entry partner): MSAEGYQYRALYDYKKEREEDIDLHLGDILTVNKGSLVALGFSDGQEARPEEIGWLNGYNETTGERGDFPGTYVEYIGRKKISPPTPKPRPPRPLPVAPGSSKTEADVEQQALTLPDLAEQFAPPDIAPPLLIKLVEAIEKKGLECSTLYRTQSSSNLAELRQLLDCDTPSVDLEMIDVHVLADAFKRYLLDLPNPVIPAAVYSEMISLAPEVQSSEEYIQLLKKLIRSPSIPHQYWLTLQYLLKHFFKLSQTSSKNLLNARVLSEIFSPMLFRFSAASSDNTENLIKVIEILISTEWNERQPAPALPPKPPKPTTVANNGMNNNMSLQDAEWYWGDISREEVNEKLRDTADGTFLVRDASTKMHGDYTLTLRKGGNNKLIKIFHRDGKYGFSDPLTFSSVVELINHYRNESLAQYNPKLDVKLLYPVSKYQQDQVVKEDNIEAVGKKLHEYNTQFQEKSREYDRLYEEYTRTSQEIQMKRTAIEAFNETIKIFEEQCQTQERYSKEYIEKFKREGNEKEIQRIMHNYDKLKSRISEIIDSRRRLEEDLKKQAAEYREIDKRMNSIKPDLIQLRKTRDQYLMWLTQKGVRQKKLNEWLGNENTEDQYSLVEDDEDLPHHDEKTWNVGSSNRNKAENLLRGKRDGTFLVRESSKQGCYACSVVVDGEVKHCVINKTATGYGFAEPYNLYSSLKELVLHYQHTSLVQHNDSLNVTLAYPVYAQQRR
# Chain of IGF1R (P08069 31-1367): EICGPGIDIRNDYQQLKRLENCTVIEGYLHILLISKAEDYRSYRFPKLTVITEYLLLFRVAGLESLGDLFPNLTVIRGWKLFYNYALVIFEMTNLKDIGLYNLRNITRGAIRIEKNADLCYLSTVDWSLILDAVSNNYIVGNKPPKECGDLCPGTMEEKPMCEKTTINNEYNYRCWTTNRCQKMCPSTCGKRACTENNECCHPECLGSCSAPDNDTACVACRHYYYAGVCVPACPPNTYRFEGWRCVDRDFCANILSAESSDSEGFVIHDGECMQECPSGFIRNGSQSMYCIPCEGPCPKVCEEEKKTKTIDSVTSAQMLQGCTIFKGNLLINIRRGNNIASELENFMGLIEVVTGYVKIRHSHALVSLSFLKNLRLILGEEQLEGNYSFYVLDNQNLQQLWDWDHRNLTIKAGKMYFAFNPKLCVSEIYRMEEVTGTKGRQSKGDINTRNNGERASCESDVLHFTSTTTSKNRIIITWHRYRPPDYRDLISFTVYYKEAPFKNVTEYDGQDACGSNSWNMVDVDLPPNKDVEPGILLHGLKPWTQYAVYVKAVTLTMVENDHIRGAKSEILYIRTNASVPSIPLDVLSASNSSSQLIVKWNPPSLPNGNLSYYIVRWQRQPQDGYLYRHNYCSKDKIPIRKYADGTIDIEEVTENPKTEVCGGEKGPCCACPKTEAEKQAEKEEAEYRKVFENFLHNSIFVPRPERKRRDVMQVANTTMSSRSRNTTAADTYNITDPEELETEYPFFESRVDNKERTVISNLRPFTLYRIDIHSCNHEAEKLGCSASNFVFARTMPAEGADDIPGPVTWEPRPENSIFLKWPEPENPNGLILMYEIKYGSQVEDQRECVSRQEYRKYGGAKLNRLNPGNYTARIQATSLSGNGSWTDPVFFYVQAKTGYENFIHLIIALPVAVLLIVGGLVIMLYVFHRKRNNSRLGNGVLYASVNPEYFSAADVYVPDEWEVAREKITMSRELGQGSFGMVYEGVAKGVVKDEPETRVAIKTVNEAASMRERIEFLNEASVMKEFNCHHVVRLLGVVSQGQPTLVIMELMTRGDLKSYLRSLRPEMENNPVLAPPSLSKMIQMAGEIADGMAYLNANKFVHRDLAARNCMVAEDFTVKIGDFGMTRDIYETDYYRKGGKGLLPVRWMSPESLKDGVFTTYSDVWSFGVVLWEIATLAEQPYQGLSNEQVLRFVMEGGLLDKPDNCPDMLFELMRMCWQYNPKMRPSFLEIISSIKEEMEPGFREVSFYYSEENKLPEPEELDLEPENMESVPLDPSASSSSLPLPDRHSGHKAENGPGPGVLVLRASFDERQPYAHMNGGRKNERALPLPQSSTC
# Chain of FAK (Q05397 whole entry): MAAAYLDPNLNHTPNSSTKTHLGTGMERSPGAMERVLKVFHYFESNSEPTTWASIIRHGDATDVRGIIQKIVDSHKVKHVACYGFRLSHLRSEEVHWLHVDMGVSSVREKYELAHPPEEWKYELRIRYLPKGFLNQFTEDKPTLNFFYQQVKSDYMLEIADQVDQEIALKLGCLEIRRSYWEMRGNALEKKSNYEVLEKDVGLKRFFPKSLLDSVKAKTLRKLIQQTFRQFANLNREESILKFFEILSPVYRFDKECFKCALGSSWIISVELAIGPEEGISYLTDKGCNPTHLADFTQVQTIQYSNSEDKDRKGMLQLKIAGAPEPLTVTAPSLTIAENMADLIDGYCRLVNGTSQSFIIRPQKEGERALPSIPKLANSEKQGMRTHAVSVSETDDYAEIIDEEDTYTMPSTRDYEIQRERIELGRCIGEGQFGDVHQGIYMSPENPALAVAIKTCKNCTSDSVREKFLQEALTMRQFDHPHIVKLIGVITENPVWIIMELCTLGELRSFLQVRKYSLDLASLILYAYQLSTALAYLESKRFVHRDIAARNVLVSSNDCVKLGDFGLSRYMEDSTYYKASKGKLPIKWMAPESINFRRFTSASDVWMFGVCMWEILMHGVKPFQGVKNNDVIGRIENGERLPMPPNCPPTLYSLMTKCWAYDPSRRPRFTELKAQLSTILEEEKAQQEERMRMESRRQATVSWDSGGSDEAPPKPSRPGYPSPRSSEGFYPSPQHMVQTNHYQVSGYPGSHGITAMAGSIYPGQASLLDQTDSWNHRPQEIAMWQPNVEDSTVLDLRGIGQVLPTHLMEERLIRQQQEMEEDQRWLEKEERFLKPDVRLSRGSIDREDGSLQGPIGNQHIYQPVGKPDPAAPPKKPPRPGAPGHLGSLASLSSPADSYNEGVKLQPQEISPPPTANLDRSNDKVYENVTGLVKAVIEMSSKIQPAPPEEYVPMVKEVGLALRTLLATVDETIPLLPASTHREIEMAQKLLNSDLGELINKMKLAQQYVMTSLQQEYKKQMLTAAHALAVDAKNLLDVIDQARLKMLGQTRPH
smiles,measurement,setting,value
CCOc1cc2ncc(C#N)c(Nc3ccc(OCc4ccccn4)c(Cl)c3)c2cc1NC(=O)/C=C/CN(C)C [neratinib],basal cell viability (steady-state ATP),[1],no evidence of interference on basal cell viability
same,inhibition at 10 µM,[2],18%
same,β-cell Glut2 expression,[3]; MLD–STZ mice,restored β-cell Glut2 expression
same,loss of nuclear PDX1- and NKX6.1-positive cells and islet architecture in MLD–STZ mice,"[3]; mouse, in vivo",markedly attenuated
same,inhibition at 10 µM,[4],95%
same,inhibition at 10 µM,[5],11%
same,caspase-3 activation induced by TNFα/IFNγ and high glucose,[6],largely inhibited
same,inhibition at 10 µM,[7],37%
same,inhibition at 10 µM,[8],-14%
same,inhibition at 10 µM,[9],8%
same,inhibition at 10 µM,[10],-48%
same,BCM,"[11]; NeraCtr group (no STZ), MEAN",1.179
same,BCM,"[11]; NeraCtr group (no STZ), individual mice",1.212 and 1.511 and 1.035 and 0.9571
same,BCM,"[11]; NeraSTZ group, MEAN",0.6212
same,BCM,"[11]; NeraSTZ group, individual mice",1.314 and 0.4366 and 0.7768 and 0.269 and 0.7149 and 0.2555 and 0.5691 and 0.3836 and 0.8706
same,β-cell mass,"[11]; STZ mice, day 35",restored β-cell mass
same,inhibition at 10 µM,[12],-7%
same,activity on MST family members,[13],potent activity
same,glycemia in nondiabetic control mice,[14]; 5 mg/kg i.p. daily,no effect on glycemia
same,glucose levels in STZ mice,"[14]; 5 mg/kg i.p. daily, 35 days",lower glucose levels during the entire 35 days
same,glycemia,"[14]; NeraCtr (no STZ, neratinib 5 mg/kg i.p. daily), day 0, individual mice",136 mg/dL and 120 mg/dL and 165 mg/dL and 122 mg/dL and 87 mg/dL and 80 mg/dL and 78 mg/dL and 130 mg/dL
same,AUC glycemia,"[14]; NeraCtr, Mean",4215.5
same,glycemia,"[14]; NeraCtr, day 3, individual mice",139 mg/dL and 103 mg/dL and 119 mg/dL and 117 mg/dL and 104 mg/dL and 116 mg/dL and 114 mg/dL and 149 mg/dL and 112 mg/dL
same,glycemia,"[14]; NeraCtr, day 7, individual mice",100 mg/dL and 134 mg/dL and 130 mg/dL and 92 mg/dL and 120 mg/dL and 106 mg/dL and 114 mg/dL and 125 mg/dL and 111 mg/dL
same,glycemia,"[14]; NeraCtr, day 9, individual mice",108 mg/dL and 93 mg/dL and 122 mg/dL and 89 mg/dL and 96 mg/dL and 109 mg/dL and 111 mg/dL and 90 mg/dL
same,glycemia,"[14]; NeraCtr, day 12, individual mice",138 mg/dL and 112 mg/dL and 125 mg/dL and 100 mg/dL and 117 mg/dL and 105 mg/dL and 86 mg/dL and 133 mg/dL
same,glycemia,"[14]; NeraCtr, day 16, individual mice",104 mg/dL and 92 mg/dL and 112 mg/dL and 106 mg/dL and 96 mg/dL and 88 mg/dL and 118 mg/dL and 93 mg/dL
same,glycemia,"[14]; NeraCtr, day 22, individual mice",115 mg/dL and 102 mg/dL and 145 mg/dL and 144 mg/dL and 132 mg/dL and 113 mg/dL and 110 mg/dL and 103 mg/dL and 146 mg/dL
same,glycemia,"[14]; NeraCtr, day 28, individual mice",109 mg/dL and 137 mg/dL and 141 mg/dL and 103 mg/dL and 110 mg/dL and 127 mg/dL and 112 mg/dL and 156 mg/dL and 106 mg/dL
same,glycemia,"[14]; NeraCtr, day 36, individual mice",156 mg/dL and 132 mg/dL and 145 mg/dL and 146 mg/dL and 111 mg/dL and 114 mg/dL and 120 mg/dL and 109 mg/dL
same,AUC glycemia,"[14]; NeraCtr, individual mice",4340.5 and 4217 and 4748 and 4310 and 3997 and 3944.5 and 3991 and 4247 and 4144.5
same,glycemia,"[14]; NeraSTZ (STZ + neratinib 5 mg/kg i.p. daily), day 0, individual mice",112 mg/dL and 125 mg/dL and 148 mg/dL
same,AUC glycemia,"[14]; NeraSTZ, Mean",7519.28
same,glycemia,"[14]; NeraSTZ, day 3, individual mice",94 mg/dL and 102 mg/dL and 117 mg/dL
same,glycemia,"[14]; NeraSTZ, day 7, individual mice",117 mg/dL and 131 mg/dL and 93 mg/dL
same,glycemia,"[14]; NeraSTZ, day 9, individual mice",179 mg/dL and 138 mg/dL and 134 mg/dL
same,glycemia,"[14]; NeraSTZ, day 12, individual mice",250 mg/dL and 310 mg/dL and 180 mg/dL
same,glycemia,"[14]; NeraSTZ, day 16, individual mice",173 mg/dL and 303 mg/dL
same,glycemia,"[14]; NeraSTZ, day 22, individual mice",209 mg/dL and 344 mg/dL
same,glycemia,"[14]; NeraSTZ, day 28, individual mice",213 mg/dL and 229 mg/dL
same,glycemia,"[14]; NeraSTZ, day 36, individual mice",214 mg/dL and 337 mg/dL and 230 mg/dL
same,AUC glycemia,"[14]; NeraSTZ, individual mice",6636.5 and 8897.5 and 6783.5 and 7009 and 8879.5 and 5194.5 and 8003.5 and 8416 and 7853.5
same,cytokine- and glucolipotoxicity-induced apoptosis in MST1-KO islets,"[15]; 10 μM, 72 h",no significant effect
same,mean TUNEL/isolation/%,[15]; MST1-KO HG/Pal Nera 10 μM 72 h,407.974%
same,mean TUNEL/isolation/%,[15]; MST1-KO ILIF Nera 10 μM 72 h,384.79%
same,β-cell apoptosis induced by MST1 overexpression,"[16]; 10 μM, 48 h",significantly blocked; also recorded: almost fully blocked
same,mean TUNEL/isolation/%,"[16]; mean, LacZ = 100",126.263%
same,mean TUNEL/isolation/%,"[16]; single isolations, LacZ mean = 100",100% and 145.455% and 133.333%
